# Source: patent US20250289793A1, “MACROCYCLIC INHIBITORS OF ATP CITRATE LYASE” (Esperion Therapeutics, Inc., priority 2022, published 2025)
# Experiments:
# ACLY [1] = molecular target: T1, ACLY (Homo sapiens (Human), UniProt P53396); test: Human ACLY (hACLY) RF/MS activity assay; assay type: biochemical; settings: 1 nM hACLY; 30 min pre-incubation; 15 μM Coenzyme A, 50 μM ATP, 50 μM citrate; CoA to Acetyl-CoA by RF/MS; read-out: RFMS IC50 GMean
# Summary of the method: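 RapidFire MS read CoA-to-acetyl-CoA conversion as a substrate/product ratio after 30 min at RT (20° C) with final 15 μM CoA, 50 μM ATP, 50 μM citrate. Before substrate addition, 1 nM enzyme sat 30 min with compound (top 10 μM, two-fold dilutions; 1% DMSO) in pH 8.0 Hepes/MgCl2/NaCl/DTT buffer.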
# [2] = molecular target: Recombinant human ACLY full length protein (Homo sapiens (Human), UniProt P53396); test: hACLY ADP-Glo activity assay; assay type: biochemical; settings: 0.5 nM ACLY; 15 μM sodium citrate, 1 μM coenzyme A, 80 μM ATP; ADP formed, luminescence; read-out: ADP-Glo IC50 GMean
# Procedure: Compounds of the disclosure were evaluated for their efficacy in inhibiting hACLY using an ADP-Glo™ assays that measure ADP formed from the enzymatic activity of hACLY.
# Test compounds were 3-fold serially diluted in DMSO over 11-point concentration range and dispensed onto a 384-well plate. Recombinant human ACLY full length protein was purified. Concentrations of ACLY protein, sodium citrate, coenzyme A, and ATP in the reaction were optimized for standardized homogenous enzyme assay using ADP-Glo™ Kinase (Promega Inc.). The assay measured ADP formed from the enzymatic reaction.
# The reaction buffer consisted of the assay buffer (50 mM HEPES pH 8.0, 10 mM MgCl2, 4 mM 1,4-Dithiothreitol, 0.01% Brij® 35).
# ACLY protein (0.5 nM) was added to the prepared reaction buffer, and the mixture was dispensed into the assay plate and incubated for 30 minutes at room temperature. Next, 15 μM sodium citrate, 1 μM coenzyme A, and 80 μM ATP were added into the assay plate and incubated for 60 minutes at room temperature. The final reaction volume for each well was 5 μL.
# 5 μL of ADP-Glo™ reagent was added, and the mixture was incubated for 40 minutes at room temperature. 10 μl ADP-Glo™ detection reagent was added, and the mixture was incubated for 30 minutes at room temperature. Luminescence was determined using EnVision microplate reader with ultra-luminescence module (Perkin Elmer Inc). Concentration-response curve-fitting and IC50 determination was performed using Xlfit Software (version 5.5.0) with a four-parameter logistic regression fit model.
# ACLY [3] = molecular target: T1, ACLY; test: InCell Pulse assay (permeate HEK293 cells, bind to and stabilize ACLY); assay type: cell-based; settings: HEK293 cells transfected with pICP-ACLY(FL)-ePL; 1 hour at 37° C., 55° C. heat pulse 10 minutes; read-out: InCell Pulse IC50 GMean
# Summary of the method: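 HEK293 cells transiently expressing full-length ACLY-ePL were exposed in OptiMEM to 11-point, 3-fold compound dilutions for 1 h at 37 °C, heat-pulsed 10 min at 55 °C, then lysed for enzyme-fragment complementation luminescence. Four-parameter fit, normalised to 0.5% DMSO and 1 μM NDI-094311.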
# T1 sequence (P53396 whole entry): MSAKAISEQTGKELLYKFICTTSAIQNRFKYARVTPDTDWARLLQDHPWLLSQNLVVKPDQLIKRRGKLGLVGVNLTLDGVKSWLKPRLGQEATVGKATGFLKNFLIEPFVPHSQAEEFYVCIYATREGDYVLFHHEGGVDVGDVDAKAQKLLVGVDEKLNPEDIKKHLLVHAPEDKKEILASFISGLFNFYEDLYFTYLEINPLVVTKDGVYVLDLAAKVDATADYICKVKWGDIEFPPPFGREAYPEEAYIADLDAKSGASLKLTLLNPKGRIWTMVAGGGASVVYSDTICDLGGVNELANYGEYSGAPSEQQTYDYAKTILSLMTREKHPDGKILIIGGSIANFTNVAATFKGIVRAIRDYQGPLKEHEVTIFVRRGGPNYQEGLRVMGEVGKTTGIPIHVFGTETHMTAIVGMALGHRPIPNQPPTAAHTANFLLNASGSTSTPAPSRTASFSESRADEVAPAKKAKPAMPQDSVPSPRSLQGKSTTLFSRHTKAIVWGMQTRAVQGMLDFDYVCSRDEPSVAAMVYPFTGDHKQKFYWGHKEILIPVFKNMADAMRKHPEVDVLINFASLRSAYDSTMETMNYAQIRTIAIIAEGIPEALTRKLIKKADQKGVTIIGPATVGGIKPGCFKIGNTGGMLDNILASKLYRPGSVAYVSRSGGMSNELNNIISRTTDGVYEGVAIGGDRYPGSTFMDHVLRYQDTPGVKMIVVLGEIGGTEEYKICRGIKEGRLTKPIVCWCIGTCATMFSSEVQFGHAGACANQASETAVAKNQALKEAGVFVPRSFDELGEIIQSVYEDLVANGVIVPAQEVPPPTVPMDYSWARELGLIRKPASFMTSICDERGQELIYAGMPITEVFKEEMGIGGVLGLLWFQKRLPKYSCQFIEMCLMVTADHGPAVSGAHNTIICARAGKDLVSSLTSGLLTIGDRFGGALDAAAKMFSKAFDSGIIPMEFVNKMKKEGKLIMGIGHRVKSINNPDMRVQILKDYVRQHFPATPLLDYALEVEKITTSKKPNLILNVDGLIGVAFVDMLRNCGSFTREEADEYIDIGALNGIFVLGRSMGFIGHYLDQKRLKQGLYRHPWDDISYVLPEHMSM
# Recombinant human ACLY full length protein, sequence (P53396 whole entry): as above
Compound,IC50 (ACLY [1]) [nM],IC50 [2] [nM],IC50 (ACLY [3]) [nM]
"C[C@@H]1COc2ccccc2-c2cc(c(F)cc2F)NS(=O)(=O)c2cc(cc(Cl)c2O)C(=O)N1 [Compound 19, (10R)-15-chloro-21,23-difluoro-16-hydroxy-10-methyl-8-oxa-18lambda6-thia-11,19-diazatetracyclo[18.3.1.1^13,17.0^2,7]pentacosa-1(24),2,4,6,13,15,17(25),20,22-nonaene-12,18,18-trione]",100 to 10000,10 to 1000,≥ 50000
"O=C1NCCOc2cccc(c2)-c2cc(c(F)cc2F)NS(=O)(=O)c2cc1cc(Cl)c2O [Compound 3, 11-chloro-3,5-difluoro-10-hydroxy-18-oxa-8lambda6-thia-7,15-diazatetracyclo[17.3.1.1^2,6.1^9,13]pentacosa-1(22),2(25),3,5,9(24),10,12,19(23),20-nonaene-8,8,14-trione]",100 to 10000,10 to 1000,≥ 50000
"Nc1cc2cc(n1)S(=O)(=O)Nc1cc(c(F)cc1F)-c1ccccc1OCCOC2=O [Compound 63, 15-amino-21,23-difluoro-18,18-dioxo-8,11-dioxa-18λ6-thia-16,19-diazatetracyclo[18.3.1.113,17.02,7]pentacosa-1(23),2(7),3,5,13,15,17(25),20(24),21-nonaen-12-one]",≥ 10000,–,≥ 50000
"O=C1c2cc(Cl)c(O)c(c2)S(=O)(=O)Nc2cc(c(F)cc2F)-c2ccccc2OCC2CN1C2 [Compound 33, 16-chloro-22,24-difluoro-17-hydroxy-19,19-dioxo-8-oxa-19λ6-thia-12,20-diazapentacyclo[19.3.1.110,12.114,18.02,7]heptacosa-1(25),2,4,6,14,16,18(26),21,23-nonaen-13-one]",20 to 100,–,300 to 1000
"O=C1OCCCc2c(sc3ccccc23)-c2cc(c(F)cc2F)NS(=O)(=O)c2cc1cc(Cl)c2O [Compound 22, 18-chloro-24,26-difluoro-19-hydroxy-14-oxa-3,21lambda6-dithia-22-azapentacyclo[21.3.1.1^16,20.0^2,10.0^4,9]octacosa-1(27),2(10),4,6,8,16,18,20(28),23,25-decaene-15,21,21-trione]",20 to 100,–,≥ 50000
"O=C1OCCCOc2cc(F)ccc2-c2cc(c(F)cc2F)NS(=O)(=O)c2cc1cc(Cl)c2O [Compound 29, 16-chloro-5,22,24-trifluoro-17-hydroxy-8,12-dioxa-19lambda6-thia-20-azatetracyclo[19.3.1^1,4,18.0^2,7]hexacosa-1(25),2,4,6,14,16,18(26),21,23-nonaene-13,19,19-trione]",20 to 100,–,300 to 1000
"O=C1OCc2ccccc2-c2ccc(F)c(c2)NS(=O)(=O)c2cc1cc(Cl)c2O [Compound 84, 13-chloro-19-fluoro-14-hydroxy-16,16-dioxo-9-oxa-16λ6-thia-17-azatetracyclo[16.3.1.111,15.02,7]tricosa-1(21),2(7),3,5,11(23),12,14,18(22),19-nonaen-10-one]",100 to 10000,–,< 300
"O=C1OCCCn2c(cc3ccccc32)-c2cc(c(F)cc2F)NS(=O)(=O)c2cc1cc(Cl)c2O [Compound 27, 18-chloro-24,26-difluoro-19-hydroxy-14-oxa-21lambda6-thia-10,22-diazapentacyclo[21.3.1.1^16,20.0^2,10.0^4,9]octacosa-1(27),2,4,6,8,16,18,20(28),23,25-decaene-15,21,21-trione]",20 to 100,–,≥ 50000
"O=C1OCCOc2ccc(Br)cc2-c2cc(c(F)cc2F)NS(=O)(=O)c2cc1cc(Cl)c2O [Compound 24, 4-bromo-15-chloro-21,23-difluoro-16-hydroxy-8,11-dioxa-18lambda6-thia-19-azatetracyclo[18.3.1.1^13,17.0^2,7]pentacosa-1(24),2,4,6,13,15,17(25),20,22-nonaene-12,18,18-trione]",20 to 100,–,< 300
"O=C1OCCOc2ccc(C3CC3)cc2-c2cc(c(F)cc2F)NS(=O)(=O)c2cc1cc(Cl)c2O [Compound 31, 15-chloro-4-cyclopropyl-21,23-difluoro-16-hydroxy-8,11-dioxa-18lambda6-thia-19-azatetracyclo[18.3.1.1^13,17.0^2,7]pentacosa-1(23),2,4,6,13(25),14,16,20(24),21-nonaene-12,18,18-trione]",100 to 10000,–,1000 to 50000
"O=C1OCC[C@H]2CCCN2c2ccc(F)c(c2)NS(=O)(=O)c2cc1cc(Cl)c2O [Compound 70, (6R)-13-chloro-19-fluoro-14-hydroxy-16,16-dioxo-9-oxa-16%6-thia-2,17-diazatetracyclo[16.3.1.111,15.02,6]tricosa-1(21),11(23),12,14,18(22),19-hexaen-10-one]",20 to 100,–,≥ 50000
"O=S1(=O)Nc2cc(c(F)cc2F)-c2ccccc2OCCn2cnnc2-c2cc(Cl)c(O)c1c2 [Compound 77, 25-chloro-17,19-difluoro-22,22-dioxo-9-oxa-2λ6-thia-3,4,6,21-tetrazapentacyclo[21.3.1.116,20.02,6.010,15]octacosa-1(26),2,4,10,12,14,16(28),17,19,23(27),24-undecaen-24-ol]",< 20,–,1000 to 50000
"N#Cc1ccc2c(c1)-c1cc(c(F)cc1F)NS(=O)(=O)c1cc(cc(Cl)c1O)C(=O)OC2 [Compound 86, 13-chloro-19,21-difluoro-14-hydroxy-10,16,16-trioxo-9-oxa-16λ6-thia-17-azatetracyclo[16.3.1.111,15.02,7]tricosa-1(21),2,4,6,11(23),12,14,18(22),19-nonaene-4-carbonitrile]",100 to 10000,–,300 to 1000
"O=C1OCCc2ccccc2-c2cc(c(F)cc2F)NS(=O)(=O)c2cc1cc(Cl)c2O [Compound 21, 14-chloro-20,22-difluoro-15-hydroxy-10-oxa-17lambda6-thia-18-azatetracyclo[17.3.1.1^12,16.0^2,7]tetracosa-1(23),2,4,6,12,14,16(24),19,21-nonaene-11,17,17-trione]",< 20,–,< 300
"O=C1NCCOc2ccccc2-c2cc(c(F)cc2F)CS(=O)(=O)c2cc1cc(Cl)c2O [Compound 14, 15-chloro-21,23-difluoro-16-hydroxy-8-oxa-18lambda6-thia-11-azatetracyclo[18.3.1.1^13,17.0^2,7]pentacosa-1(24),2,4,6,13,15,17(25),20,22-nonaene-12,18,18-trione]",≥ 10000,–,≥ 50000
"Cc1cc2cc(n1)S(=O)(=O)Nc1cc(c(F)cc1F)-c1ccccc1OCCOC2=O [Compound 62, 21,23-difluoro-15-methyl-18,18-dioxo-8,11-dioxa-18λ6-thia-16,19-diazatetracyclo[18.3.1.113,17.02,7]pentacosa-1(24),2,4,6,13,15,17(25),20,22-nonaen-12-one]",≥ 10000,–,≥ 50000
"COc1cc(F)c2cc1-c1ccccc1OCCOC(=O)c1cc(Cl)c(O)c(c1)S(=O)(=O)N2 [Compound 47, 15-chloro-21-fluoro-16-hydroxy-23-methoxy-18,18-dioxo-8,11-dioxa-18λ6-thia-19-azatetracyclo[18.3.1.113,17.02,7]pentacosa-1(23),2(7),3,5,13(25),14,16,20(24),21-nonaen-12-one]",20 to 100,–,< 300
"O=C1OCCOc2ccc(F)cc2-c2ccc(F)c(c2)NS(=O)(=O)c2cc1c[nH]c2=O [Compound 37, 4,21-difluoro-18,18-dioxo-8,11-dioxa-18λ6-thia-15,19-diazatetracyclo[18.3.1.113,17.02,7]pentacosa-1(23),2(7),3,5,13,17(25),20(24),21-octaene-12,16-dione]",100 to 10000,–,≥ 50000
"O=C1NCc2ncccc2-c2cc(c(F)cc2F)NS(=O)(=O)c2cc1cc(Cl)c2O [Compound 90, 13-chloro-19,21-difluoro-14-hydroxy-16,16-dioxo-16λ6-thia-6,9,17-triazatetracyclo[16.3.1.111,15.02,7]tricosa-1(22),2,4,6,11,13,15(23),18,20-nonaen-10-one]",100 to 10000,–,≥ 50000
